Laboratory results: ChEMBL document CHEMBL5370539, “Oxazole-4-carboxamide/butylated hydroxytoluene hybrids with GSK-3β inhibitory and neuroprotective activities against Alzheimer's disease” (Eur J Med Chem, 2023)
The source made the active and inactive calls. The calls are words filed in the database; no cut-off is given here.

Legend:
PC-12 [1] = assay: Cytotoxicity against rat PC12 cells assessed as cell viability at 6.25 to 100 uM incubated for 24 hrs by MTT assay; format: toxicity, cell-based; conditions: pc-12, 24 h, dose 6.25-100 µM
PC-12 [2] = assay: Neuroprotective activity against rat PC12 cells assessed as decrease in H2O2-induced mitochondrial membrane potential level at 2.5 uM preincubated for 12 hrs followed by replacement with fresh media and H2O2 stimulation for 12 hrs by JC-1 dye based flow cytometry (Rvb= 95.3%); format: functional; parameters: scale not given: the % may be the effect or the level left
PC-12 [3] = assay: Neuroprotective activity against rat PC12 cells assessed as decrease in H2O2-induced intracellular Ca2+ level at 10 uM preincubated for 12 hrs followed by replacement with fresh media and H2O2 stimulation for 12 hrs by Fluo-3 AM based flow cytometry relative to control; format: functional; parameters: scale not given: the % may be the effect or the level left
PC-12 [4] = assay: Anti-apoptotic activity against H2O2-induced apoptosis in rat PC12 cells assessed as late apoptotic cells at 5 uM preincubated for 12 hrs followed by replacement with fresh media and H2O2 stimulation for 12 hrs by Annexin-V/7-AAD staining based flow cytometry (Rvb=2.2 %); format: functional
PC-12 [5] = assay: Anti-apoptotic activity against H2O2-induced apoptosis in rat PC12 cells assessed as living cells at 10 uM preincubated for 12 hrs followed by replacement with fresh media and H2O2 stimulation for 12 hrs by Annexin-V/7-AAD staining based flow cytometry (Rvb=92.9%); format: functional
PC-12 [6] = assay: Neuroprotective activity against H2O2-induced cytotoxicity in rat PC12 cells assessed as increase in cell viability at 10 uM pretreated with Brusatol for 1hrs and preincubated for 12 hrs followed by replacement with fresh media and H2O2 stimulation for 12 hrs by MTT assay; format: functional, cell-based
PC12 [7] = assay: Activation of Nrf2-ARE pathway in rat PC-12 cells assessed as increase in NQO1 expression level at 2.5 to 10 uM incubated for 12 hrs by Western blot analysis; format: cell-based; conditions: filed as activator, dose 2.5-10 µM
PC12 [8] = assay: Activation of Nrf2-ARE pathway in rat PC-12 cells assessed as increase in Nrf2 expression level in cytoplasm at 10 uM incubated for 3 hrs by Western blot analysis; format: cell-based; conditions: filed as activator
[9] = Toxicity in okadaic acid-induced cognitive impairment ICR mouse model assessed as swimming speed change at 0.08 to 0.24 mg/kg, iv twice at 3days interval before and after okadaic acid stimulation measured for 5 days by Morris water maze test; format: organism-based; conditions: in vivo, 120 h, dose 0.08-0.24 mg/kg, time 5 day
Mus musculus [10] = assay: Antialzheimer activity in okadaic acid-induced cognitive impairment ICR mouse model assessed as reduction in escape time at 0.08 to 0.24 mg/kg, iv twice at 3days interval before and after okadaic acid stimulation measured upto 14 days by Morris water maze test relative to control; format: functional, organism-based; conditions: dose 0.08-0.24 mg/kg, time <= 14.0 day
Mus musculus [11] = assay: (§1) Antialzheimer activity in okadaic acid-induced cognitive impairment ICR mouse model assessed as increase of search time in target quadrant at 0.08 to 0.24 mg/kg, iv twice at 3days interval before and after okadaic acid stimulation measured upto 14 days by Morris water maze test relative to control; format: functional, organism-based; conditions: dose 0.08-0.24 mg/kg, time <= 14.0 day
Mus musculus [12] = assay: as §1, with “increase in number” for “increase”, “groups crossing virtual platform” for “search time in target quadrant”; format: functional, organism-based; conditions: dose 0.08-0.24 mg/kg, time <= 14.0 day
Mus musculus [13] = assay: Antialzheimer activity in okadaic acid-induced cognitive impairment ICR mouse model assessed as path tracing at 0.08 to 0.24 mg/kg, iv twice at 3days interval before and after okadaic acid stimulation measured upto 14 days by Morris water maze test relative to control; format: functional, organism-based; conditions: dose 0.08-0.24 mg/kg, time <= 14.0 day

With COc1ccc(-c2ocnc2C(=O)NCCCc2ccc(NC(=O)/C=C/c3cc(C(C)(C)C)c(O)c(C(C)(C)C)c3)cc2)cc1Cl the Activity (PC-12 [1]) was “Non-Toxic”, the Activity (PC-12 [2]) was 68.4% and the Activity (PC-12 [3]) was 31.1%. For the same compound, the Activity (PC-12 [4]) was 12.9%, the Activity (PC-12 [5]) was 90.7% and the Activity (PC-12 [6]) was “inactive”. The Activity (PC12 [7]) was “Dose-Dependent Effect”, the Activity (PC12 [8]) was “Active” and the Activity [9] was “Non-Toxic”. The Activity (Mus musculus [10]) was “Dose-Dependent Effect”, the Activity (Mus musculus [11]) was “Active” and the Activity (Mus musculus [12]) was “Active”. For the same compound, the Activity (Mus musculus [13]) was “Active”.
